Like-named read-outs stand apart in the source and are kept apart here. One block for each molecule: values may come before it.
Key:
Format in all cases: cell-based
[1] = system: mixed bacterial culture; assay: Preservation of unpreserved latex, repeated challenge with mixed bacterial culture; set-up: key to Viable bacteria, Third inoculum (days) 5 / Viable bacteria, Third inoculum (days) 7 / Viable bacteria, First inoculum (days) 3 / Viable bacteria, First inoculum (days) 5 / Viable bacteria, First inoculum (days) 7 / Viable bacteria, Second inoculum (days) 3 / Viable bacteria, Second inoculum (days) 5 / Viable bacteria, Second inoculum (days) 7 / Viable bacteria, Third inoculum (days) 3: C is confluent growth over the surface; − is no visible colonies; + is few visible colonies; ++ is clusters of discreet colonies; conditions: for antimicrobial activity in latex: zinc salt alone, 200 ppm (Table 1)
Description: Aliquots (25 parts) of unpreserved latex containing 50% by weight solids of a copolymer of 2-ethylhexylacrylate/acrylic acid at pH 8.5 were formulated with zinc acetate and the 2:1 zinc complex of 3-hydroxy4-methyl thiazol-2(3H)-thione in the amounts shown in Table 1 below. After formulation, each aliquot was stored at 20° C. for 1 week prior to inoculation with a mixed bacterial culture.
The bacterial culture was prepared by culturing the following seven bacteria in nutrient agar for 24 hours at 30° C.
Each of the individual bacterium was prepared at a concentration of 10^8 cells/ml in quarter strength Ringers solution by means of a Thoma counting chamber. The mixed inoculum was prepared by mixing equal volumes of the cultures containing the individual bacterium.
The latex aliquots were repeatedly inoculated at 0, 7 and 14 day intervals with 0.5 ml mixed inoculum (2×10^6 cells/ml) and incubated at 30° C. The number of viable bacteria was determined by streaking a small portion of each aliquot of latex onto nutrient agar after 3, 5 and 7 days followed by visible assessment after incubation for 2 days at 30° C.

[2] = system: Pseudomonas aeruginosa NCIB 10421; assay: MIC and Fractional Inhibitory Concentration (FIC) in microtitre array
Description: The gram negative bacterium, Pseudomonas aeruginosa NCIB 10421 was grown in nutrient broth to stationary phase during 18 hours and contained approximately 10^9 organisms/ml. A 0.1% (v/v) inoculum was used to seed fresh nutrient broth and 100 μl was then added to each well of a microtitre plate, except for the first well which contained 200 μl.
Solutions of zinc acetate (ZnAc) and the 2:1 zinc complex of 3-hydroxy-4-methylthiazol-2(3H)-thione (ZHMT), respectively, were prepared in nutrient broth at twice the final concentration to be used in the microtitre array. A microtitre array was prepared with concentration of zinc acetate and ZHMT from twice the MIC down to zero concentration in a 10×10 array. Since the array contains only 96 wells, the highest and lowest concentration of the zinc acetate and ZHMT were omitted. The dilution of the ZHMT was doubled across the ordinate axis of the array by transferring 100 μl aliquots so that the final volume in each well was 200 μl. The microtitre plate was then incubated for 16 to 24 hours at 37° C. and the presence of bacterial growth assessed visually.
The FIC is defined as the sum of the fractional inhibitory concentration of each component. The FIC of the individual component is the ratio of the concentration of the component in the binary mixture divided by its MIC.

[3] = system: contaminated matt paint millbase; assay: Viable cells in contaminated matt paint millbase; set-up: key to Viable cells after (days) 5 / Viable cells after (days) 7 / Viable cells after (days) 14: C is confluent growth over the surface; − is no visible colonies; + is few visible colonies; ++ is clusters of discreet colonies
Description: 25 ml Aliquots of a contaminated matt paint millbase were formulated with the 2:1 zinc complex of 3-hydroxy-4-methylthiazol-2(3H)-thione and zinc acetate as shown in Table 2 below. The number of variable cells was determined by streaking a small portion of each aliquot of millbase onto nutrient agar after 5, 7 and 14 days. The number of cells was determined by visible assessment following incubation for 2 days at 30° C.

[4] = system: mixed inoculum; assay: Preservation of styrene-acrylic emulsion paint, challenge with mixed inoculum; set-up: key to Bacterial growth, First Inoculum Days 4 / Bacterial growth, First Inoculum Days 7 / Bacterial growth, Second Inoculum Days 4 / Bacterial growth, Second Inoculum Days 7 / Bacterial growth, Second Inoculum Days 14 / Bacterial growth, Third Inoculum Days 4 / Bacterial growth, Third Inoculum Days 7 / Bacterial growth, Third Inoculum Days 21: − = no growth (no visible colonies); + = light growth (a few visible colonies); ++ = moderate growth (discrete colonies visible, some coalescence); +++ = dense, confluent growth (coalescing colonies visible throughout streak); conditions: for Bacterial growth, First Inoculum Days 4 / Bacterial growth, First Inoculum Days 7 / Bacterial growth, Second Inoculum Days 4 / Bacterial growth, Second Inoculum Days 7 / Bacterial growth, Second Inoculum Days 14 / Bacterial growth, Third Inoculum Days 4 / Bacterial growth, Third Inoculum Days 7 / Bacterial growth, Third Inoculum Days 21: emulsion paint
Description: An inoculum was prepared containing the following micro-organisms:
Each of the individual bacterium was cultured in nutrient agar and incubated at 30° C. for 24 hours followed by suspension in quarter strength Ringers solution by means of a Thoma countering chamber to give 10^8 cells/ml. A mixed inoculum was prepared by combining equal volumes.
An aliquot of the starch containing the ZHMT, and optionally zinc acetate, was inoculated weekly with 0.5 ml of the mixed inoculum on three occasions to give 2×10^6 cells/ml. The aliquots were then incubated at 30° C. and examined for bacterial growth by streaking a small sample onto nutrient agar and incubating at 30° C. for 2 days prior to visual examination.
Aliquots of a styrene-acrylic emulsion paint were treated with the 2:1 zinc complex of 3-hydroxy-4-methylthiazol-2(3H)-thione (ZHMT) optionally containing zinc acetate (ZnAc) or zinc oxide (ZnO). These aliquots were challenged with the mixed inoculum described in Example 5 and examined for bacterial growth as described in this previous example.

[5] = latex, Amount 200 ppm of each component present
[6] = ZnAc replaced by the same weight of the metal salt
[7] = Amount 25 ppm of each component present
[8] = Amount 50 ppm of each component present
[9] = latex, Amount 25 ppm of each component present
[10] = latex, Amount 50 ppm of each component present
[11] = latex, Amount 100 ppm of each component present

Molecule: [Cl-].[Cl-].[Zn+2] [ZC, zinc chloride]
Viable bacteria, First inoculum (days) 3 [1, 5]: +
Viable bacteria, First inoculum (days) 5 [1, 5]: −
Viable bacteria, First inoculum (days) 7 [1, 5]: −
Viable bacteria, Second inoculum (days) 3 [1, 5]: ++
Viable bacteria, Second inoculum (days) 5 [1, 5]: ++
Viable bacteria, Second inoculum (days) 7 [1, 5]: ++
Viable bacteria, Third inoculum (days) 3 [1, 5]: C
Viable bacteria, Third inoculum (days) 5 [1, 5]: C
Viable bacteria, Third inoculum (days) 7 [1, 5]: C
antimicrobial activity in latex [1]: no antimicrobial activity

Molecule: [Cl][Cu][Cl] [cupric chloride]
synergy with ZHMT [2, 6]: no synergy

Minimum Inhibitory Concentrations (MIC) ([2]; nutrient broth, 16 to 24 hours at 37° C., single component): 32 ppm
Molecule: Cc1csc(=S)n1[O-].Cc1csc(=S)n1[O-].[Zn+2] [ZHMT, 2:1 zinc complex of 3-hydroxy-4-methylthiazol-2(3H)-thione]
Viable cells after (days) 5 [3, 7]: C
Viable cells after (days) 7 [3, 7]: C
Viable cells after (days) 14 [3, 7]: C
Viable cells after (days) 5 [3, 8]: C
Viable cells after (days) 7 [3, 8]: C
activity in the presence of both zinc salts ([1]; latex, especially after repeated challenge): significantly enhanced
Viable bacteria, First inoculum (days) 3 [1, 9]: −
Viable bacteria, First inoculum (days) 5 [1, 9]: −
Viable bacteria, First inoculum (days) 7 [1, 9]: −
Viable bacteria, Second inoculum (days) 3 [1, 9]: C
Viable bacteria, Second inoculum (days) 5 [1, 9]: C
Viable bacteria, Second inoculum (days) 7 [1, 9]: C
Viable bacteria, Third inoculum (days) 3 [1, 9]: C
Viable bacteria, Third inoculum (days) 5 [1, 9]: C
Viable bacteria, Third inoculum (days) 7 [1, 9]: C
Viable bacteria, First inoculum (days) 3 [1, 10]: ++
Viable bacteria, First inoculum (days) 5 [1, 10]: −
Viable bacteria, First inoculum (days) 7 [1, 10]: −
Viable bacteria, Second inoculum (days) 3 [1, 10]: ++
Viable bacteria, Second inoculum (days) 5 [1, 10]: +
Viable bacteria, Second inoculum (days) 7 [1, 10]: +
Viable bacteria, Third inoculum (days) 3 [1, 10]: C
Viable bacteria, Third inoculum (days) 5 [1, 10]: C
Viable bacteria, Third inoculum (days) 7 [1, 10]: C
Viable bacteria, First inoculum (days) 3 [1, 11]: ++
Viable bacteria, First inoculum (days) 5 [1, 11]: −
Viable bacteria, First inoculum (days) 7 [1, 11]: −
Viable bacteria, Second inoculum (days) 3 [1, 11]: ++
Viable bacteria, Second inoculum (days) 5 [1, 11]: +
Viable bacteria, Second inoculum (days) 7 [1, 11]: −
Viable bacteria, Third inoculum (days) 3 [1, 11]: ++
Viable bacteria, Third inoculum (days) 5 [1, 11]: ++
Viable bacteria, Third inoculum (days) 7 [1, 11]: ++
Viable bacteria, First inoculum (days) 3 [1, 5]: +
Viable bacteria, First inoculum (days) 5 [1, 5]: −
Viable bacteria, First inoculum (days) 7 [1, 5]: −
Viable bacteria, Second inoculum (days) 3 [1, 5]: ++
Viable bacteria, Second inoculum (days) 5 [1, 5]: +
Viable bacteria, Second inoculum (days) 7 [1, 5]: −
Viable bacteria, Third inoculum (days) 3 [1, 5]: ++
Viable bacteria, Third inoculum (days) 5 [1, 5]: ++
Viable bacteria, Third inoculum (days) 7 [1, 5]: ++
Bacterial growth, First Inoculum Days 4 ([4]; Conc. 10 (ppm ZHMT)): −
Bacterial growth, First Inoculum Days 7 ([4]; Conc. 10 (ppm ZHMT)): −
Bacterial growth, Second Inoculum Days 4 ([4]; Conc. 10 (ppm ZHMT)): +++
Bacterial growth, Second Inoculum Days 7 ([4]; Conc. 10 (ppm ZHMT)): +++
Bacterial growth, Second Inoculum Days 14 ([4]; Conc. 10 (ppm ZHMT)): +++
Bacterial growth, Third Inoculum Days 4 ([4]; Conc. 10 (ppm ZHMT)): +++
Bacterial growth, Third Inoculum Days 7 ([4]; Conc. 10 (ppm ZHMT)): +++
Bacterial growth, Third Inoculum Days 21 ([4]; Conc. 10 (ppm ZHMT)): +++
Bacterial growth, First Inoculum Days 4 ([4]; Conc. 25 (ppm ZHMT)): −
Bacterial growth, First Inoculum Days 7 ([4]; Conc. 25 (ppm ZHMT)): −
Bacterial growth, Second Inoculum Days 4 ([4]; Conc. 25 (ppm ZHMT)): +++
Bacterial growth, Second Inoculum Days 7 ([4]; Conc. 25 (ppm ZHMT)): +++
Bacterial growth, Second Inoculum Days 14 ([4]; Conc. 25 (ppm ZHMT)): +++
Bacterial growth, Third Inoculum Days 4 ([4]; Conc. 25 (ppm ZHMT)): +++
Bacterial growth, Third Inoculum Days 7 ([4]; Conc. 25 (ppm ZHMT)): +++
Bacterial growth, Third Inoculum Days 21 ([4]; Conc. 25 (ppm ZHMT)): +++
Bacterial growth, First Inoculum Days 4 ([4]; Conc. 50 (ppm ZHMT)): −
Bacterial growth, First Inoculum Days 7 ([4]; Conc. 50 (ppm ZHMT)): −
Bacterial growth, Second Inoculum Days 4 ([4]; Conc. 50 (ppm ZHMT)): +++
Bacterial growth, Second Inoculum Days 7 ([4]; Conc. 50 (ppm ZHMT)): +++
Bacterial growth, Second Inoculum Days 14 ([4]; Conc. 50 (ppm ZHMT)): +++
Bacterial growth, Third Inoculum Days 4 ([4]; Conc. 50 (ppm ZHMT)): +++
Bacterial growth, Third Inoculum Days 7 ([4]; Conc. 50 (ppm ZHMT)): +++
Bacterial growth, Third Inoculum Days 21 ([4]; Conc. 50 (ppm ZHMT)): +++
Bacterial growth, First Inoculum Days 4 ([4]; Conc. 100 (ppm ZHMT)): −
Bacterial growth, First Inoculum Days 7 ([4]; Conc. 100 (ppm ZHMT)): −
Bacterial growth, Second Inoculum Days 4 ([4]; Conc. 100 (ppm ZHMT)): +++
Bacterial growth, Second Inoculum Days 7 ([4]; Conc. 100 (ppm ZHMT)): +++
Bacterial growth, Second Inoculum Days 14 ([4]; Conc. 100 (ppm ZHMT)): +++
Bacterial growth, Third Inoculum Days 4 ([4]; Conc. 100 (ppm ZHMT)): +++
Bacterial growth, Third Inoculum Days 7 ([4]; Conc. 100 (ppm ZHMT)): +++
Bacterial growth, Third Inoculum Days 21 ([4]; Conc. 100 (ppm ZHMT)): +++
Bacterial growth, First Inoculum Days 4 ([4]; Conc. 200 (ppm ZHMT)): −
Bacterial growth, First Inoculum Days 7 ([4]; Conc. 200 (ppm ZHMT)): −
Bacterial growth, Second Inoculum Days 4 ([4]; Conc. 200 (ppm ZHMT)): ++
Bacterial growth, Second Inoculum Days 7 ([4]; Conc. 200 (ppm ZHMT)): ++
Bacterial growth, Second Inoculum Days 14 ([4]; Conc. 200 (ppm ZHMT)): ++
Bacterial growth, Third Inoculum Days 4 ([4]; Conc. 200 (ppm ZHMT)): +++
Bacterial growth, Third Inoculum Days 7 ([4]; Conc. 200 (ppm ZHMT)): +++
Bacterial growth, Third Inoculum Days 21 ([4]; Conc. 200 (ppm ZHMT)): +++
ZHMT level at which the paint is preserved ([4]; styrene-acrylic emulsion paint): > 200 ppm
FIC ([2]; single component, relative conc. 1): 1

Molecule: CC(=O)[O-].CC(=O)[O-].[Zn+2] [ZA, zinc acetate]
effect on activity of the metal complex [3]: increases the bacterial activity of the metal complex
Viable bacteria, First inoculum (days) 3 [1, 5]: −
Viable bacteria, First inoculum (days) 5 [1, 5]: −
Viable bacteria, First inoculum (days) 7 [1, 5]: −
Viable bacteria, Second inoculum (days) 3 [1, 5]: ++
Viable bacteria, Second inoculum (days) 5 [1, 5]: ++
Viable bacteria, Second inoculum (days) 7 [1, 5]: ++
Viable bacteria, Third inoculum (days) 3 [1, 5]: ++
Viable bacteria, Third inoculum (days) 5 [1, 5]: ++
Viable bacteria, Third inoculum (days) 7 [1, 5]: ++
antimicrobial activity in latex [1]: no antimicrobial activity
FIC [2]: 1
Minimum Inhibitory Concentrations (MIC) [2]: 250 ppm

Molecule: manganese chloride
synergy with ZHMT [2, 6]: no synergy

Molecule: [O-]n1ccccc1=S.[O-]n1ccccc1=S.[Zn+2] [2:1 zinc complex of 1-hydroxypyridine-2-thione]
synergy with ZnAc ([2]; ZHMT replaced by this complex): no synergy

Molecule: [Cl-].[Cl-].[Mg+2] [magnesium chloride]
synergy with ZHMT [2]: no synergy

Molecule: [Cl][Fe]([Cl])[Cl] [ferric chloride]
effect on the ZHMT ([2]; ZnAc replaced with half the weight of the metal salt): antagonistic effect

Source: patent US6339081B1, “Composition and use” (priority 1996, dated 2002)
